Experimental findings from patent US20110105419A1, “PHARM[…] BASED ON CO[…] OF D-METALS” (priority 2008, published 2011) are described below.

Each structure is given as a SMILES string. Marks after values point to notes of the source that are not given here.

The test system of test [1] is peritoneal macrophages. As to the kind of experiment: Intracellular calcium concentration and Ca2+ signals in peritoneal macrophages (Fura-2AM). Type of test: cell-based, rat. For orientation: Calcium flux is commonly read through the fluorescence of an indicator in the cells.
Test [2] deals with male rats with cytopenia. The test can be described thus: General blood analysis of male rats with cytopenia after application of cyclophosphane. Type of test: in vivo, rat. To be noted: doses mg/kg: cysteine 9.5, lithium carbonate 3, C-Li 10, Fe-C-Li:C-Li 10.
Test [3] has as its system herpes type 2 (HSV-2). The test can be described thus: Generalized herpetic infection of white mice. Type of test: in vivo. To be noted: mice infected with HSV-2.
For test [4], the target named is T1, epidermal growth factor receptor (Homo sapiens, UniProt P00533).
T1 construct: cells of the human epidermoid carcinoma line A431 have an extraordinarily high level of expression of the epidermal growth factor receptor; endogenous in cells; host or cells: A431 (All-Russian Cell Culture Collection)
As to the kind of experiment: Tyrosine kinase activity of the epidermal growth factor receptor in A431 cells (phosphotyrosine immunoblotting, densitometry). The class given is cell-based. In general terms: In western blotting, separated proteins are transferred to a membrane and probed.

Test [5] deals with Chlamydia trachomatis, strain L-2. The test can be described thus: Experimental generalized chlamydial infection of white mice. Type of test: in vivo.
[6] abbreviates: 3 days after cyclophosphane 100 mg/kg.
Setting [7] is: 7 days after cyclophosphane 100 mg/kg.
Where [8] appears, read: 14 days after cyclophosphane 100 mg/kg.
[9] abbreviates: Zovirax 15 mg/kg daily for 14 days.
[10] abbreviates: Zovirax 30 mg/kg daily for 14 days.
[11] abbreviates: mice infected with Chlamydia trachomatis L-2, 2 LD50, 20 mg/kg s.c. daily for 10 days.
Where [12] appears, read: mice infected with Chlamydia trachomatis L-2, josamycin 25 mg/kg orally daily for 10 days.
The mark [13] stands for this setting: mice infected with Chlamydia trachomatis L-2, josamycin 50 mg/kg orally daily for 10 days.
Setting [14] is: mice infected with Chlamydia trachomatis L-2, josamycin 100 mg/kg orally daily for 10 days.

T1 sequence (P00533 25-1210): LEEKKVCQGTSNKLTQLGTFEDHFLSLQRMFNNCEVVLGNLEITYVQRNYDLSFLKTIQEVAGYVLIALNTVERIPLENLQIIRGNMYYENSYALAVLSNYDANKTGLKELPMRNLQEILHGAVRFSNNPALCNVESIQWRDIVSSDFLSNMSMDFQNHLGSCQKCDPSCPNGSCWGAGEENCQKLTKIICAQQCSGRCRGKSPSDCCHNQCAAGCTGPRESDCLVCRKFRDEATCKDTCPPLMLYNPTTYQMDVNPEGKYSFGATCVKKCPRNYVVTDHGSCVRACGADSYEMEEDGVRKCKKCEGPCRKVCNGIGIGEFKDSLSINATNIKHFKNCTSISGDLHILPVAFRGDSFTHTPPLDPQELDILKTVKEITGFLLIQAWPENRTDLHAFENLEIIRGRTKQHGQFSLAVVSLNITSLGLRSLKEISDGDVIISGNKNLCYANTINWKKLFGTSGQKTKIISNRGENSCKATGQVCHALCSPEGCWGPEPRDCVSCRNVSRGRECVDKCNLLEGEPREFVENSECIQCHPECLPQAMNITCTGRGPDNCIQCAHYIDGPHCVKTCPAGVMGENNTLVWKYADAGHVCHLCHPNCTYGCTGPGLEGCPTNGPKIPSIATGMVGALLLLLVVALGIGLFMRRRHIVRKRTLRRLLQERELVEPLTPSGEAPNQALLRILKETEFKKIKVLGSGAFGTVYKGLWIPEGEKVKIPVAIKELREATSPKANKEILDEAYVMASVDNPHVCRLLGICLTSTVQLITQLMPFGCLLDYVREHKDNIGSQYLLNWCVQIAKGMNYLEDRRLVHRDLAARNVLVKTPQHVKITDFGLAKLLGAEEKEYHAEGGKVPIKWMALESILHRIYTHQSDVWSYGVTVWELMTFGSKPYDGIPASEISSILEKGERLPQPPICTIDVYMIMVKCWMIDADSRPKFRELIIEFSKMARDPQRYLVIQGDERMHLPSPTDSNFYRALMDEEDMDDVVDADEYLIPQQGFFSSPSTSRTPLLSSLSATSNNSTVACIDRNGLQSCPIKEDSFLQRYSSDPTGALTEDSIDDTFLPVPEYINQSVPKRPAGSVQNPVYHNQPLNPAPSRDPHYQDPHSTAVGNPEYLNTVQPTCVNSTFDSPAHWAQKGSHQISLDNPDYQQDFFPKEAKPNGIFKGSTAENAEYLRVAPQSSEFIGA

As for `Nc1ncnc2c1ncn2[C@@H]1O[C@H](COP(=O)(O)OP(=O)(O)OP(=O)(O)O)[C@@H](O)[C@H]1O` [ATP], the “[Ca2+]i peak of the Ca2+ signal” value in test [1] (rat peritoneal macrophages, normal physiological solution, 200 μM ATP, baseline 75±18 nM) came out at 820 ± 105 nM. Besides, in test [1] (rat peritoneal macrophages, normal physiological solution, 4 min after addition of 200 μM ATP), the “[Ca2+]i in the plateau phase, on average” value came out at 460 ± 115 nM.

Consider `N[C@@H](CS)C(=O)[O-].[Li+]` [C—Li, lithium salt of cysteine], for which, in test [2] (setting [6]), the ESR was found to be 3.3 ± 0.80 mm/h, the Erythrocytes is 4.0 ± 0.23 10^12/l, the Leukocytes was 4.38 ± 0.31* 10^9/l and the Lymphocytes was 45 ± 1.6 %. In addition, in test [2] (setting [6]), the Reticulocytes came out at 0.1 ± 0.1 %, the Segmented neutrophils was 42 ± 1.6 % and the Thrombocytes is 387 ± 17.4 10^9/l. For the same compound, in test [2] (setting [7]), the ESR is on record as 3.2 ± 0.80 mm/h, the Erythrocytes is 3.2 ± 0.18 10^12/l, the Leukocytes is listed as 4.8 ± 0.18** 10^9/l and the Lymphocytes came to 22 ± 0.9 %. For the same compound, in test [2] (setting [7]), the Reticulocytes worked out at 1.2 ± 0.2%, the Segmented neutrophils stood at 50.4 ± 0.6 % and the Thrombocytes is 164 ± 10.0** 10^3/l. Besides, in test [2] (setting [8]), the ESR was 2.7 ± 0.49 mm/h, the Erythrocytes is 5.2 ± 0.26 10^12/l, the Leukocytes is 5.6 ± 0.22** 10^9/l and the Lymphocytes is on record as 72.5 ± 1.4%. Moreover, in test [2] (setting [8]), the Reticulocytes was 1.3 ± 0.3% and the Segmented neutrophils turned out to be 20.3 ± 2.4 %.

As to `O=C([O-])[O-].[Li+].[Li+]` [Li2HCO3, lithium carbonate], in test [2] (setting [6]), the ESR is given as 2.4 ± 0.42 mm/h, the Erythrocytes is 3.7 ± 0.21 10^12/l, the Leukocytes is reported as 3.75 ± 0.46* 10^9/l and the Lymphocytes came to 62 ± 3.8 %. Besides, in test [2] (setting [6]), the Reticulocytes was determined as 0.118 ± 0.01 %, the Segmented neutrophils is recorded as 19.7 ± 3.4 % and the Thrombocytes was 256 ± 45.3 10^9/l. Also, in test [2] (setting [7]), the ESR amounted to 2.0 ± 0.36 mm/h, the Erythrocytes is listed as 3.6 ± 0.29 10^12/l, the Leukocytes is listed as 3.22 ± 0.11* 10^9/l and the Lymphocytes is given as 50.7 ± 1.6 %. Also, in test [2] (setting [7]), the Reticulocytes was 1.1 ± 0.1%, the Segmented neutrophils is 33 ± 1.7 % and the Thrombocytes is 119 ± 12.0** 10^3/l. In test [2] (setting [8]), the ESR came out at 2.4 ± 0.65 mm/h, the Erythrocytes is 4.9 ± 0.27 10^12/l, the Leukocytes is recorded as 5.9 ± 0.26** 10^9/l and the Lymphocytes stood at 69.3 ± 0.9%. In test [2] (setting [8]), this compound yielded a Reticulocytes of 1.4 ± 0.3% and a Segmented neutrophils of 14.9 ± 2.6 %.

As for `Nc1nc2c(ncn2COCCO)c(=O)[nH]1` [Zovirax], in test [3] (setting [9]), the “% mortality” value amounted to 50%; the “% protection, (S)” value stood at 12.5%; the Died/total in group was 8/16; the “ML (days) (T), mean life” value was 12.8 days. For the same compound, in test [3] (setting [10]), the “% mortality” value turned out to be 0%; the “% protection, (S)” value was determined as 62.5%; the Died/total in group is 0/16; the “ML (days) (T), mean life” value is reported as “∞”.

Consider `N[C@@H](CS)C(=O)O` [cysteine], for which the “activation of the EGF receptor, by a factor of” value in test [4] (cysteine 0.015 μmol/ml, periods of action from 1 hour to 4-8 hours, ratio to control) was 8-10. Also, the “[Ca2+]i increased to, by mobilization of calcium from the intracellular stores” value in test [1] (rat peritoneal macrophages at rest, 0.015 μmol/ml) was 180 ± 19 nM. Further, in test [2] (setting [6]), the ESR came out at 2.2 ± 0.30 mm/h, the Erythrocytes is 3.0 ± 0.29 10^12/l, the Leukocytes was 3.26 ± 0.31* 10^9/l and the Lymphocytes amounted to 68 ± 2.8 %. Also, in test [2] (setting [6]), the Reticulocytes turned out to be 0.09 ± 0.006 %, the Segmented neutrophils is recorded as 17.6 ± 2.1 % and the Thrombocytes is 220 ± 45.3 10^9/l. Besides, in test [2] (setting [7]), the ESR was determined as 1.9 ± 0.39 mm/h, the Erythrocytes is on record as 3.1 ± 0.33 10^12/l, the Leukocytes was 3.47 ± 0.08* 10^9/l and the Lymphocytes is recorded as 51.5 ± 1.3 %. Moreover, in test [2] (setting [7]), the Segmented neutrophils was 30 ± 1.8 % and the Thrombocytes was 124 ± 11.0** 10^3/l. For the same compound, in test [2] (setting [8]), the ESR was 2.1 ± 0.73 mm/h, the Erythrocytes is reported as 4.7 ± 0.21 10^12/l, the Leukocytes is on record as 5.7 ± 0.22** 10^9/l and the Lymphocytes stood at 72.1 ± 1.6%. Also, in test [2] (setting [8]), the Reticulocytes was found to be 1.1 ± 0.4% and the Segmented neutrophils is 13.3 ± 1.9 %. Also, in test [3] (20 mg/kg daily for 14 days), the “% mortality” value stood at 62.5%; the Died/total in group was 10/16; the “ML (days) (T), mean life” value turned out to be 11.4 days. In test [5] (setting [11]), the “% mortality” value worked out at 75%; the “% protection, (S)” value worked out at 0%; the Died/total in group was 12/16; the “HML (T), (days), harmonic mean life” value is reported as 5.6 days.

With `NCC(=O)O` [glycine], the “influence on the tyrosine kinase activity of the epidermal growth factor receptor” value in test [4] (ligands 0.015 μmol/ml, coordination compounds 0.015 nmol/ml) is given as “barely detected”.

Regarding `CO[C@@H]1[C@@H](O[C@@H]2O[C@H](C)[C@@H](O[C@H]3C[C@@](C)(O)[C@@H](OC(=O)CC(C)C)[C@H](C)O3)[C@H](N(C)C)[C@H]2O)[C@@H](CC=O)C[C@@H](C)[C@@H](O)/C=C/C=C/C[C@@H](C)OC(=O)C[C@H]1OC(C)=O` [josamycin], in test [5] (setting [12]), the “% mortality” value was determined as 37.5%; the “% protection, (S)” value was found to be 37.5%; the Died/total in group is listed as 6/16; the “HML (T), (days), harmonic mean life” value was 12.35 days. In test [5] (setting [13]), the “% mortality” value is on record as 12.5%; the “% protection, (S)” value was determined as 62.5%; the Died/total in group is given as 2/16; the “HML (T), (days), harmonic mean life” value is 83.3 days. Also, in test [5] (setting [14]), the “% mortality” value came out at 0%; the “% protection, (S)” value amounted to 75%; the Died/total in group was 0/16; the “HML (T), (days), harmonic mean life” value is listed as “∞”.
